The source made the active and inactive calls. No rule for the calls is given here.
Biological target: Apelin receptor (Homo sapiens) (UniProt P35414)
Assay: APJ antagonist potency in beta-arrestin recruitment, dose response, cell-based, luminescence, uHTS hits (AID 2784)
Conditions: antagonist mode

Sequence of Apelin receptor (Homo sapiens) (P35414 whole entry, looked up): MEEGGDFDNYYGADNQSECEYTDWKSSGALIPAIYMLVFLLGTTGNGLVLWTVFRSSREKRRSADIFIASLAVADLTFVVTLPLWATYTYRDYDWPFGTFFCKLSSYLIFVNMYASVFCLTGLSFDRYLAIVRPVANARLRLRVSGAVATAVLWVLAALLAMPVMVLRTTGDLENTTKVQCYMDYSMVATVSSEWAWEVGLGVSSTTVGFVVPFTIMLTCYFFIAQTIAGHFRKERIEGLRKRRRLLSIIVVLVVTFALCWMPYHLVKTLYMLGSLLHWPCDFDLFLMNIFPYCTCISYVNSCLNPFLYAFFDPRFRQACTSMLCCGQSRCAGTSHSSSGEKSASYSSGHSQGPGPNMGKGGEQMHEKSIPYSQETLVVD

SMILES | IC50
CCOC(=O)C1=C(C)NC2=C(C(=O)CC(c3cccs3)C2)C1c1cccs1 (configuration not stated) | inactive
COc1ccc2c(c1)C(=O)[C@@H](O)[C@H](c1ccc(OC)c(Br)c1)O2 | > 40 µM (inactive)
Cc1ccc(NS(=O)(=O)c2cc([N+](=O)[O-])ccc2N/N=C/c2sc(N3CCOCC3)nc2-c2ccccc2)c(C)c1 | > 40 µM (inactive)
O=[N+]([O-])c1ccc(O)c(/C=N/Nc2ccc(Cl)nn2)c1 | 4.18 µM
COc1ccc2c(c1)C(=O)[C@H](O)[C@@H](c1ccc(OC)c(Br)c1)O2 | 3.07 µM
CCOC(=O)C1=NNC(C(=O)c2ccc(Cl)cc2)C1c1ccccc1 (configuration not stated) | 10.6 µM
CC1=Nc2ccccc2/C1=C/c1sc(=N)n(-c2nccs2)c1O | > 40 µM (inactive)
Cn1c(O)c(N=Nc2nc(-c3ccccc3)cs2)c2ccccc21 | > 40 µM (inactive)
CC1=NN(c2ccc(C)cc2)C(=O)/C1=C/c1ccc(-c2cc([N+](=O)[O-])ccc2O)o1 | > 40 µM (inactive)
O=C(O)c1ccccc1N=Nc1c(O)[nH]c2ccc([N+](=O)[O-])cc12 | > 40 µM (inactive)
COc1ccc(NS(=O)(=O)c2cc([N+](=O)[O-])ccc2N/N=C\c2c(C)[nH]c3ccccc23)cc1 | > 40 µM (inactive)
O=C(CCCC(=O)Nc1cccc(Br)c1)N/N=C/c1cc([N+](=O)[O-])ccc1O | inactive
COC(=O)C1NN=C(C(=O)c2ccc(Cl)cc2)C1c1ccc(OC)cc1 (configuration not stated) | 7.27 µM
CN(/N=C/c1cc([N+](=O)[O-])ccc1O)c1ccccc1 | inactive
Cc1ncc(CO)c(/C=N/Nc2ccc(C(F)(F)F)cn2)c1O | 9.42 µM
CCOCCOC(=O)C1=C(C)NC2=C(C(=O)CC(c3cccs3)C2)C1c1ccsc1 (configuration not stated) | > 40 µM (inactive)
CC1=NN(C(N)=S)C(=O)C1N=Nc1ccc([N+](=O)[O-])cc1 (configuration not stated) | > 40 µM (inactive)

Source: PubChem BioAssay AID2784 (Sanford-Burnham Center for Chemical Genomics, 2010)
